The results in this text go back to patent publication US20090326007A1, “Compounds and methods for modulating sir2 protein activity” (priority 2007, published 2009).

“Also recorded” adds a separate entry of the source. Where two headings read alike, the source gives them in different places.

One assay addresses Hst2 (1-294) (Saccharomyces cerevisiae, UniProt P53686). As to the kind of experiment: High throughput screen for Hst2 effectors in the presence of nicotinamide (fluorimetric). The note with it: Table 3, activators, nicotinamide present.
Assay [1] concerns the target T1, Hst2 (Saccharomyces cerevisiae, UniProt P53686). As to the kind of experiment: SAR analysis, fluorigenic assay at 50 and 500 μM. In kind it is biochemical. The note with it: relative to control. An excerpt:
Structure Activity Relationship (SAR) Analysis.

Assay [2] deals with T1, Hst2. The assay can be described thus: Competition assay (inhibition mode versus NAD+ and acetyl-lysine substrate). The class given is biochemical. To be noted: for Ki: read-out: Ki. As to the method: Competition Assay. […] The fluorigenic assay described above was used with a fixed enzyme concentration of 1 μM. When competition with NAD^+ was being tested, the FLUOR DE LYS-SIRT1 deacetylase substrate was held at a constant concentration of 100 μM and the NAD^+ was titrated from ⅓-5× KmNAD+ (5-80 μM). […] The inhibitors were titrated from ˜½-several times their estimated Ki as indicated. The reaction time was 15 minutes, and each condition was tested in duplicate. The Km, kcat and kcat/Km values were determined by direct fit of the data in SIGMAPLOT (Systat Software, Point Richmond, Calif.) to the Michealis-Menten equation. The Ki and Kis (the slope and intercept inhibition constants, respectively) and the competition type were also determined by a direct fit in SIGMAPLOT to both partial and full competitive, noncompetitive, uncompetitive and mixed competition models. Best-fit models were determined by several statistical methods including R^2, AICs and Sy.x as well as empirical evaluation of α and β values.
To determine the mechanism of inhibition of the compounds identified by HTS and to gain insight as to where these compounds may bind to the enzyme, inhibition modes were determined by varying each of the substrates with the other maintained at a fixed, saturating concentration (Table 11).

A further assay deals with T2, human SIRT2 (Homo sapiens, UniProt Q8IXJ6).
T2 sequence (Q8IXJ6 1-352 isoform Q8IXJ6-2): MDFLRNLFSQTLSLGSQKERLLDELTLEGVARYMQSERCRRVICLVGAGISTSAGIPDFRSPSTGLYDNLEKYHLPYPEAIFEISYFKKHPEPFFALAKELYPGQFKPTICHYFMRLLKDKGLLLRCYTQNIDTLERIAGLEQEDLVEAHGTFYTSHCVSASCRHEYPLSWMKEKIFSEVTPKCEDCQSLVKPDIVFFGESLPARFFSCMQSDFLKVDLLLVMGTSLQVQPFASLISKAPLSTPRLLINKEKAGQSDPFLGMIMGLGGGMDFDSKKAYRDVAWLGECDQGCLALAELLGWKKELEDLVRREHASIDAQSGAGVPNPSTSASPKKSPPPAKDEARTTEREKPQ
As to the kind of experiment: Inhibition assay against human SIRT2 (fluorigenic). To be noted: for inhibitory activity against human SIRT2 (in words): 50 or 100 μM compound.

The target of the next assay is T3, human SIRT3 (Homo sapiens, UniProt Q9NTG7).
T3 sequence (Q9NTG7 1-399): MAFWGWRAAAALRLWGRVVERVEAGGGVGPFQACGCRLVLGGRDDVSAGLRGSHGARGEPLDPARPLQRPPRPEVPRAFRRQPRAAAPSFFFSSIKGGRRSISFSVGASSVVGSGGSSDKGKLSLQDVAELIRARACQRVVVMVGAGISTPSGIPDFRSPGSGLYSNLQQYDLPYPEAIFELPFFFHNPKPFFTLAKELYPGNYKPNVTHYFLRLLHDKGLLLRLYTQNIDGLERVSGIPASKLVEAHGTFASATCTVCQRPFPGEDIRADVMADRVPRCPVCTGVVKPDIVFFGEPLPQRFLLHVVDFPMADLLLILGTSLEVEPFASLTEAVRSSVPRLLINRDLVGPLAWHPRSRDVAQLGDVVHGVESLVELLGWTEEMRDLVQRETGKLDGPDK
As to the kind of experiment: Inhibition assay against human SIRT3 (fluorigenic).

Assay [3] has as its target T1, Hst2. The assay can be described thus: IC50 determination, fluorigenic deacetylase assay, Hst2.
Procedure: (§3) IC50 Determination. […] The dose-response curves were then fit to one-site competition or sigmoidal-dose response curves as appropriate in [sequence] PRISM (GraphPad Software, La Jolla, Calif.) and the IC50 was determined. Three independent IC50 measurements were performed for each compound and the average and standard deviation are reported.
(§4) The resulting deacetylase activity for the three experiments was averaged and reported as a percentage relative to control wells containing no inhibitor.
In a further assay the target is T4, full-length human SIRT1 (Homo sapiens, UniProt Q96EB6).
T4 sequence (Q96EB6 1-747): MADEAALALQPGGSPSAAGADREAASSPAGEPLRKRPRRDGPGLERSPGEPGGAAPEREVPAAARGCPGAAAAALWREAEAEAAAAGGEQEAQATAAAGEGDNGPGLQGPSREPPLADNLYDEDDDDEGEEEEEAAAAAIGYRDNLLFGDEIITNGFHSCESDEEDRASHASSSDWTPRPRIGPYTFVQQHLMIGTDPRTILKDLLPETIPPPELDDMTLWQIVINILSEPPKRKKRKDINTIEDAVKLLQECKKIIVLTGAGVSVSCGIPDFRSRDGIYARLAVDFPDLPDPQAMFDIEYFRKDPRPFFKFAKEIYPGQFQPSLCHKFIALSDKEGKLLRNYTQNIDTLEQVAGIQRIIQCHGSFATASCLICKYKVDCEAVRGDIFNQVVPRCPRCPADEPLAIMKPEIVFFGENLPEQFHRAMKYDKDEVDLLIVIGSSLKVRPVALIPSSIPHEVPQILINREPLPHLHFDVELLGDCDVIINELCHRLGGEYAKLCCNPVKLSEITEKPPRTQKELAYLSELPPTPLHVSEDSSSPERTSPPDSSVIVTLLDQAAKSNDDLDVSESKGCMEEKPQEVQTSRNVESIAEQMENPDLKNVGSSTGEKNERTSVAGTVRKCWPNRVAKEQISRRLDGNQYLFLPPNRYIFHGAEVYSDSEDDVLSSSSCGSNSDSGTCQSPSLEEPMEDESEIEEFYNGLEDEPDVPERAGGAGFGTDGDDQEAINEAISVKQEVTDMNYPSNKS
As to the kind of experiment: IC50 determination, fluorigenic deacetylase assay, FL SIRT1. To be noted: read-out: SIRT1 IC50; Table 5; 240 μM NAD+, 200 μM substrate, 1 μM FL SIRT1, 15 min.

The target of assay [4] is T1, Hst2.
Procedure: as §3, §4
Another assay addresses T5, wild-type yHst2 (Saccharomyces cerevisiae, UniProt P53686).
T5 construct: The 64-residue C-terminal deletion construct of yHst2 (residues 1-294) and point mutants were purified; His6 (N); made in house
As to the kind of experiment: Kinetic assay, deacetylase fluorescent activity assay kit, wild-type enzyme. The class given is biochemical. The note with it: read-out: Km for NAD+. An excerpt:
(§1) Kinetic Assays. […] Data taken in triplicate were fitted to the equation l/v=(Km/Vmax)(1/[S])+1/Vmax, using a root mean least squares approach in the form of a double reciprocal Lineweaver-Burk plot where the x-intercept is equal to −l/Km. […] The slopes of the Dixon Plot were replotted versus 1/[NAD^+], and the slope of the corresponding line was set equal to Km/(Vmax*Ki), in order to calculate Ki.

The target in a further assay is T6, yHst2 I117F mutant (Saccharomyces cerevisiae, UniProt P53686, I117F).
T6 construct: Point mutations in yHst2 (1-294) were generated from the pRSET-A plasmid; His6 (N); made in house
T6 sequence (P53686 1-294 I117F): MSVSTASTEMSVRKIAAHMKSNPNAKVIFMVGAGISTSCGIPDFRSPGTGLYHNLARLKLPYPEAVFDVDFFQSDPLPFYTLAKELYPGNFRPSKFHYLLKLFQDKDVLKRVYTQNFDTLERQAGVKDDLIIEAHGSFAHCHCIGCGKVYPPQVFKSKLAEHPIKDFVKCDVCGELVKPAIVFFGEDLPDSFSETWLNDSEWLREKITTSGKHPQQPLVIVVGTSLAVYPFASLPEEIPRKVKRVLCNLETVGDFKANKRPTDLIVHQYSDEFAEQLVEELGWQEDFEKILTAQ
The assay can be described thus: Kinetic assay, deacetylase fluorescent activity assay kit, I117F mutant. The class given is biochemical.
Text: (§2) Protein Preparation, Crystallization and Structure Determination.
as §1

A further assay addresses T7, yHst2 I117V mutant (Saccharomyces cerevisiae, UniProt P53686, I117V).
T7 construct: Point mutations in yHst2 (1-294) were generated from the pRSET-A plasmid; His6 (N); made in house
As to the kind of experiment: Kinetic assay, deacetylase fluorescent activity assay kit, I117V mutant. The class given is biochemical.
Text: as §2, §1

The target in the next assay is T8, yHst2 D118N mutant (Saccharomyces cerevisiae, UniProt P53686, D118N).
T8 construct: Point mutations in yHst2 (1-294) were generated from the pRSET-A plasmid; His6 (N); made in house
T8 sequence (P53686 1-294 D118N): as the sequence (P53686 1-294 I117F) above, with F117I, D118N counted along it
The assay can be described thus: Kinetic assay, deacetylase fluorescent activity assay kit, D118N mutant. In kind it is biochemical.
Text: as §2, §1

Assay [5] addresses T1, Hst2. As to the kind of experiment: Reversibility assay. In kind it is biochemical. The note with it: preincubation at 10x IC50, 100-fold dilution.
Procedure: Reversibility Assay. Each of the inhibitor scaffolds identified in the HTS was tested to determine whether they were reversible, slowly reversible or irreversible inhibitors of Hst2. The reversibility of each compound was identified using the fluorigenic assay described herein.
To aid in the determination of the mechanism of inhibition for each newly identified inhibitor and to assay reversibly of inhibitor binding to the enzyme, it was tested whether or not inhibitor binding to the Sir2 enzyme was rapidly reversible, slowly reversible or irreversible. […] Then, the enzyme was diluted 100-fold into reaction wells with both substrates, and the amount of product formation over time was monitored (FIG. 2).
A further assay relates to trypsin. As to the kind of experiment: Control for inhibition of the trypsin assay developer. In kind it is biochemical. An excerpt: These compounds were not pursued further.
Setting [6] is: substrate NAD+ varied, acetyl-lysine substrate 100 μM.
Setting [7] is: substrate acetyl-lysine varied, NAD+ 160 μM.
Where [8] appears, read: read-out: percent of residual enzyme activity, SIRT2.
[9] abbreviates: read-out: percent of residual enzyme activity, SIRT3.
[10] abbreviates: read-out: Hst2 IC50, Table 5, 160 μM NAD+, 100 μM substrate, 1 μM Hst2, 15 min.

T1 sequence (P53686 1-294): as the sequence (P53686 1-294 I117F) above, with F117I counted along it
T7 sequence (P53686 1-294 I117V): as the sequence (P53686 1-294 I117F) above, with F117V counted along it
Chain of Hst2 (1-294) (P53686 1-294): as the sequence (P53686 1-294 I117F) above, with F117I counted along it
T5 sequence (P53686 1-294): as the sequence (P53686 1-294 I117F) above, with F117I counted along it
Procedure for Hst2 (1-294): High Throughput Screening (HTS). A high throughput screening protocol based on the SIRT1 Fluorimetric Activity Assay/Drug Discovery Kit was developed (BIOMOL International, Inc., Plymouth Meeting, Pa.). […] One hundred nanoliters of either a DMSO control or a compound from the small molecule screening library was added to each well by pinning. […] After 45 minutes, each plate was read on a fluorescence plate reader at an excitation wavelength of 360 nm and an emission wavelength of 460 nm. […] The fluorescence signal from each well was normalized to the DMSO controls on each 384-well plate and compared to a DMSO control population based on the following equation:
where χ is the fluorescence signal of the well, μ is the mean of the control (DMSO) population and σ is the standard deviation of the control population. […]
Procedure for full-length human SIRT1: Cells were harvested and lysed by sonication in buffer containing 50 mM Tris, pH 7.5, 200 mM NaCl, 5 mM imidizole, 10 mM β-mercaptoethanol (BME) and 0.1 mg/mL PMSF. Soluble FL SIRT1 was purified by Ni-NTA (Qiagen, Valencia, Calif.) in a buffer containing 50 mM Tris, pH 7.5, 300 mM NaCl, 10 mM BME, 5% glycerol and 30-600 mM imidizole followed by SUPERDEX-200 gel filtration in buffer containing 50 mM Tris, pH 7.5, 150 mM NaCl, and 10 mM BME. FL SIRT1 eluted between the 670 kDa and 158 kDa globular protein standards. Since SIRT1 is known to aggregate after several days at 4° C., the protein was aliquoted and frozen at −80° C. for use in fluorigenic assays.
as §3
Procedure for human SIRT2: (§5) Human recombinant SIRT3 was purchased from Enzo Life Sciences.
(§6) Inhibition Assay Against Human SIRT2 and SIRT3. […] Two independent measurements were performed for each compound and the average and standard deviation are reported.
Procedure for human SIRT3: as §5, §6

Take `CC1(C)CC(=O)C2=C(C1)NC1=C(C(=O)CC(C)(C)C1)C2c1cccc(F)c1`: the “Fold Activation” value on Hst2 (1-294) is 2.2 Fold.

As for `CCc1ccc(OCCCC(=O)Oc2ccc3c(c2)oc(=O)c2ccccc23)cc1` [Compound 12a, 4-(4-Ethyl-phenoxy)-butyric acid 6-oxo-6H-benzo[c]chromen-3-yl ester], the activity at 50 µM at Hst2 [1] (Table 8, 50 μM compound) is less than 1%. For the same compound, the activity at 500 µM on Hst2 [1] (Table 8, 500 μM compound, read-out: % Activity 500) is less than 1%. Also, the kcat came out at 0.025 ± 0.005 s⁻¹ at Hst2 [2] (substrate NAD+ varied) and 0.0163 ± 0.00067 s⁻¹ at Hst2 [2] (substrate acetyl-lysine varied). The “Inhibition Mechanism” value is listed as “fully non-competitive; also recorded: NC (full)” on Hst2 [2] (setting [6]) and “partial non-competitive” at Hst2 [2] (setting [7]). Also, the Ki was 1.2 ± 0.2 µM at Hst2 [2] (substrate NAD+ varied) and 6.3 ± 1.7 µM on Hst2 [2] (substrate acetyl-lysine varied). Moreover, the “inhibitory activity against human SIRT2 (in words)” value against human SIRT2 is listed as “potent inhibitor”. The remaining activity at 50 µM at human SIRT2 (setting [8]) stood at 2.4 ± 0.3%; on human SIRT3 (setting [9]), 89 ± 3.3%. The “IC50 values (range in words)” value at Hst2 [3] (Table 5) is listed as “low micromolar”. Further, the values for the IC50 at Hst2 [3] (setting [10]) and at full-length human SIRT1 were 6.5 ± 1.3 µM and 6 ± 0.4 µM, respectively.

Take `COCC#CC1c2cc(O)c(OC)cc2CCN1C` (stereo not drawn) [Compound 15a, 6-Methoxy-1-(3-methoxy-prop-1-ynyl)-2-methyl-1,2,3,4-tetrahydro-isoquinolin-7-ol]: the activity at 500 µM on Hst2 [1] (Table 7, 500 μM compound, read-out: % Activity 500 μM) was determined as 5%. Further, the kcat at Hst2 [2] (substrate NAD+ varied) came to 0.0137 ± 0.00233 s⁻¹; on Hst2 [2] (substrate acetyl-lysine varied), 0.0167 ± 0.0033 s⁻¹. The “Inhibition Mechanism” value at Hst2 [2] (setting [6]) is recorded as “fully mixed”; on Hst2 [2] (setting [7]), “fully non-competitive; also recorded: NC (full)”. In addition, the “α (mixed inhibition model)” value on Hst2 [2] (with respect to NAD+) is listed as 2.6. For the same compound, on Hst2 [4], the “IC50 lower than that of compound 15b” value was “about 2 fold”. For the same compound, the “inhibitory activity against human SIRT2 (in words)” value on human SIRT2 was “only weak inhibitory activity”. The remaining activity at 100 µM at human SIRT2 (setting [8]) turned out to be 92.1 ± 1.5%; at human SIRT3 (setting [9]) it was 96.4 ± 0.5%. Also, the “inhibitory activity against human SIRT3 (in words)” value on human SIRT3 (50 or 100 μM compound) is given as “only weak inhibitory activity”. The IC50 on full-length human SIRT1 came to 570 ± 200 µM.

As to `NC(=O)c1ccc[n+]([C@@H]2O[C@H](COP(=O)([O-])OP(=O)(O)OC[C@H]3O[C@@H](n4cnc5c(N)ncnc54)[C@H](O)[C@@H]3O)[C@@H](O)[C@H]2O)c1` [NAD^+], the Km came out at 16.1 µM at wild-type yHst2; 25.8 µM on yHst2 I117F mutant (I117F mutant, read-out: Km for NAD+); 25.5 µM at yHst2 I117V mutant (I117V mutant, read-out: Km for NAD+); 454 µM at yHst2 D118N mutant (D118N mutant, read-out: apparent Km for NAD+). Moreover, at yHst2 I117F mutant (I117F mutant versus wild-type), the “increased Km for NAD+ compared to wild-type enzyme” value is reported as “less than 2 fold”. Also, the “increase of Km for NAD+ over wild-type” value on yHst2 D118N mutant (D118N mutant versus wild-type) is “more than 28 fold”.

For `NC(=O)c1cccnc1` [Nicotinamide (1), Nicotinamide, reference compound], at yHst2 I117F mutant (I117F mutant versus wild-type), the “increase of Kii for nicotinamide over wild-type enzyme” value is given as roughly 6 fold. The “decrease of Kii for nicotinamide over wild-type enzyme” value at yHst2 I117V mutant (I117V mutant versus wild-type) is listed as roughly 2.5 fold. The “slope of progress curve with respect to the enzyme control” value on Hst2 [5] is 30%. Further, the remaining activity at 100 µM on human SIRT2 (setting [8]) turned out to be 26 ± 1.4%.

In the case of “(Pyrido[2,3-a]5-nitropyrrolo[3,4-c]carbazole-5,7(6H)-dione) (cyclopentadienyl)monocarbonyl ruthenium [Compound 16b]”, in the assay on trypsin, the inhibition of trypsin entry is listed as “did not inhibit trypsin”. Besides, the IC50 was determined as 24 ± 16 µM against Hst2 [3] (Table 4, Hst2) and 24 ± 16 µM on Hst2 [3] (setting [10]). Further, at Hst2 [3] (Table 5), the “IC50 values (range in words)” value is recorded as “low micromolar”.

“Pyrido[2,3-a]4-nitropyrrolo[3,4-c]carbazole-5,7(6H)-dione) (cyclopentadienyl) monocarbonyl ruthenium [Compound 16a]”: the inhibition of trypsin entry with trypsin is reported as “did not inhibit trypsin”. Also, the IC50 at Hst2 [3] (Table 4, Hst2) amounted to 36 ± 12 µM; on Hst2 [3] (setting [10]), 36 ± 12 µM. Further, the “IC50 values (range in words)” value on Hst2 [3] (Table 5) is recorded as “low micromolar”.

In general, kcat refers to the maximal rate divided by the concentration of active sites. In general, Ki refers to the dissociation constant of the complex between target and ligand, obtained from inhibition or displacement. One may read the IC50 as the concentration needed to halve the response being measured. Usually Km stands for the concentration of substrate that gives half-maximal velocity.
